Like-named read-outs stand apart in the source and are kept apart here. Where a SMILES comes first, the peptide text is derived from it. [ ]: non-standard residue; d: D form. N(2-ethylhexyl)Gly = CCCCC(CC)CNCC(=O)O; Gly(N-dodecyl) = CCCCCCCCCCCCNCC(=O)O; N(CH(CH2OH)2)Gly = O=C(O)CNC(CO)CO; N(octyl)Gly = CCCCCCCCNCC(=O)O; NDecylGly = CCCCCCCCCCNCC(=O)O
Assays:
[1] = Particle size and polydispersity (PDI) of delivery vehicles by dynamic light scattering; type: physicochemical
Description: The resulting delivery vehicle complexes were evaluated by dynamic light scattering (DLS) to determine the volume average particle size/diameter (nm) and the size polydispersity index (PDI) within the delivery vehicle complex.
Particle size. Particle sizes and size distributions were measured using a Wyatt DynaPro® Plate Reader III. In general, formulated samples were diluted to 2 ng/μL in 100 µL PBS. Data is reported as the hydrodynamic diameter (in nm) of the cumulant fit of the correlation function, and the polydispersity of that measurement.
(§1) In one particular instance, the size and polydispersity (PDI) of delivery vehicles was measured by dynamic light scattering in PBS using a DynaPro® plate reader III. The zeta potential of delivery vehicles was determined using Nano-ZS™ particle analyzer. Zeta sample was diluted to 30 uM total lipid in a weakly buffered solution of 10 mM HEPES, 10 mM MES, 10 mM ammonium acetate pH 7. Measurements were collected in duplicate for over 30 run with the voltage manually set to […]

[2] = Percent encapsulated mRNA, RiboGreen assay; type: physicochemical
Description: Percent encapsulation. The percentage of mRNA encapsulated within the delivery vehicle complexes containing Fluc mRNA was determined using a modified RiboGreen® assay. In general, formulated mRNA samples were diluted to 500 ng/ml in Tris-EDTA buffer with or without Triton-X™. RiboGreen® (Invitrogen) was added at a 200-fold dilution, and the plate was incubated for 5 minutes. Fluorescence was measured at Ex. […]/Em. 520 nm and encapsulated mRNA was calculated by taking the ratio of fluorescence for non-lysed particles versus lysed particles.
The mRNA concentration and the percentage of encapsulated mRNA were determined using a fluorescence-based Quant-iT™ RiboGreen® RNA Reagent Kit using a literature procedure. To determine the mRNA concentration, delivery vehicles were incubated with 2% Triton™ X-100 for 10 min to release entrapped mRNA, followed by addition of RiboGreen® RNA reagent. The fluorescence intensity of mRNA-RiboGreen® reagent complex (excitation at 485 nm and emission at 530 nm) was detected using a microplate reader. The ratio of fluorescence without and with Triton™ X-100 were used to calculate the percentage of encapsulated mRNA.

[3] = Zeta potential of delivery vehicles; type: physicochemical; conditions: Table 5; delivery vehicle, pH 7 buffer; in mV (unit assumed)
Description: as §1

[4] = Apparent particle pKa, TNS fluorescence assay; type: physicochemical; conditions: Table 5; apparent particle pKa of delivery vehicle
Description: The apparent particle pKa was assessed by a TNS fluorescence assay. Briefly, particles were diluted to 130 uM total lipid in TNS buffer ranging in pH 3-11 for 10 minutes with […] of TNS probe. The fluorescence was measured at room temperature in a plate reader ex 320/em 445. Fluorescence intensity was normalized to the minimal and maximal values and the pKa was determined by a 3 parameter fit to determine the half maximum of the curve.

[5] = RBC hemolysis as metric for fusogenicity; type: cell-based; conditions: sheep red blood cells (RBCs), 5% v/v
Description: RBC hemolysis was used as a metric for fusogenicity of LNPs at low pH. […] Particles were diluted to […] total lipid in well with 5% RBC solution and incubated at 37° C. for 45 min. Supernatant was collected and absorbance read on a microplate reader at 425 nm. Fusion was normalized to a fully lysed sample with 2% Triton™ and a buffer-only control. % hemolysis=100*[(ABS T-background)−(ABS sample-background)/(ABS T-background)].

[6] = Table 5, delivery vehicle comprising the peptoid, Formulation D22, fLuc mRNA
[7] = Table 5, delivery vehicle, 37° C. 45 min, pH 5, read-out: Hemolysis at pH 5
[8] = Table 5, delivery vehicle, 37° C. 45 min, pH 7, read-out: Hemolysis at pH 7
[9] = Table 6, comparative peptoid delivery vehicle
[10] = Table 6, comparative peptoid delivery vehicle, pH 5, read-out: Hemolysis at pH 5
[11] = Table 6, comparative peptoid delivery vehicle, pH 7, read-out: Hemolysis at pH 7

Structure (SMILES): CCCCCCN(CC(N)=O)C(=O)CN(CC(CC)CCCC)C(=O)CN(CCCCCC)C(=O)CN(CC(CC)CCCC)C(=O)CN(CCCCCC)C(=O)CN(CC(CC)CCCC)C(=O)CN(CCCCCC)C(=O)CN(CC(CC)CCCC)C(=O)CNC(CO)CO (centres unmarked) [Compound 13]
- PDI [1, 6]: 0.102
- Particle Size (nm) [1, 6]: 122.4 nm
- % Encapsulation [2, 6]: 82.0%
- Zeta Potential [3]: −5.17
- pKa (TNS) [4]: 5.686
- hemolysis at 45 min, 150 mM total lipid [5, 7]: 1.8%
- hemolysis at 45 min, 150 mM total lipid [5, 8]: 0.6%

Structure (SMILES): CCCCCCCCCCCCN(CC(N)=O)C(=O)CN(CCCCCCCCCCCC)C(=O)CN(CCCCCCCCCCCC)C(=O)CN(CCCCCCCCCCCC)C(=O)CNC(CO)CO [Compound 21]
- PDI [1, 6]: 0.262
- Particle Size (nm) [1, 6]: 66.4 nm
- % Encapsulation [2, 6]: 81.2%
- Zeta Potential [3]: 2.7
- pKa (TNS) [4]: 5.406
- hemolysis at 45 min, 150 mM total lipid [5, 7]: 35.8%
- hemolysis at 45 min, 150 mM total lipid [5, 8]: 59.5%

Structure (SMILES): CCCCCCCCCCCCN(CC(=O)N(CCCCCCCCCCCC)CC(=O)N(CCCCCCCC)CC(=O)N(CCCCCCCCCCCC)CC(=O)N(CCCCCCCCCCCC)CC(=O)N(CCCCCCCC)CC(N)=O)C(=O)CNC(CO)CO [Compound 33] (H-[N(CH(CH2OH)2)Gly][Gly(N-dodecyl)][Gly(N-dodecyl)][N(octyl)Gly][Gly(N-dodecyl)][Gly(N-dodecyl)][N(octyl)Gly]-NH2)
- PDI [1, 6]: 1
- Particle Size (nm) [1, 6]: 165.8 nm
- % Encapsulation [2, 6]: −1.8%
- Zeta Potential [3]: −2.12
- pKa (TNS) [4]: 5.935
- hemolysis at 45 min, 150 mM total lipid [5, 7]: 0.9%
- hemolysis at 45 min, 150 mM total lipid [5, 8]: 0.4%

Structure (SMILES): CCCCCCCCCCCCN(CC(N)=O)C(=O)CN(CC(CC)CCCC)C(=O)CN(CCCCCCCCCCCC)C(=O)CN(CCCCCCCCCCCC)C(=O)CN(CC(CC)CCCC)C(=O)CN(CCCCCCCCCCCC)C(=O)CNC(CO)CO (centres unmarked) [Compound 40] (H-[N(CH(CH2OH)2)Gly][Gly(N-dodecyl)][N(2-ethylhexyl)Gly][Gly(N-dodecyl)][Gly(N-dodecyl)][N(2-ethylhexyl)Gly][Gly(N-dodecyl)]-NH2)
- PDI [1, 6]: Multimodal
- Particle Size (nm) [1, 6]: 270.5 nm
- % Encapsulation [2, 6]: 55.9%
- Zeta Potential [3]: −7.48
- pKa (TNS) [4]: 4.883
- hemolysis at 45 min, 150 mM total lipid [5, 7]: 0.5%
- hemolysis at 45 min, 150 mM total lipid [5, 8]: -0.1%

Structure (SMILES): CCCCCCCCCCN(CC(N)=O)C(=O)CN(CCCCCCCCCC)C(=O)CN(CCCCCCCCCC)C(=O)CN(CCCCCCCCCC)C(=O)CNC(CO)CO [Compound 37]
- PDI [1, 6]: Multimodal
- Particle Size (nm) [1, 6]: 181.4 nm
- % Encapsulation [2, 6]: 56.4%
- Zeta Potential [3]: −0.676
- pKa (TNS) [4]: 6.418
- hemolysis at 45 min, 150 mM total lipid [5, 7]: 7.8%
- hemolysis at 45 min, 150 mM total lipid [5, 8]: 23.9%

Structure (SMILES): CCCCCCCCCCCCN(CC(=O)N(CCCCCC)CC(=O)N(CCCCCC)CC(=O)N(CC(=O)N(CCCCCCCCCCCC)CC(=O)N(CCCCCC)CC(=O)N(CCCCCC)CC(N)=O)CC(CC)CCCC)C(=O)CN(CC(CC)CCCC)C(=O)CNC(CO)CO (centres unmarked) [Compound 15]
- PDI [1, 6]: 0.111
- Particle Size (nm) [1, 6]: 106.6 nm
- % Encapsulation [2, 6]: 84.5%
- Zeta Potential [3]: −8
- pKa (TNS) [4]: 5.909
- hemolysis at 45 min, 150 mM total lipid [5, 7]: 0.9%
- hemolysis at 45 min, 150 mM total lipid [5, 8]: 0.6%

Structure (SMILES): CCCCCCCC/C=C\CCCCCCCCN(CC(=O)N(CCCCCCCC)CC(=O)N(CCCCCCCC/C=C\CCCCCCCC)CC(=O)N(CCCCCCCC)CC(N)=O)C(=O)CNC(CO)CO [Compound 44]
- PDI [1, 6]: 0.194
- Particle Size (nm) [1, 6]: 98.1 nm
- % Encapsulation [2, 6]: 76.4%
- Zeta Potential [3]: 2.39
- pKa (TNS) [4]: 6.936
- hemolysis at 45 min, 150 mM total lipid [5, 7]: 51.6%
- hemolysis at 45 min, 150 mM total lipid [5, 8]: 95.8%

Structure (SMILES): CCCCCCCCCCCCN(CC(=O)N(CCCCCCCCCCCC)CC(=O)N(CC(=O)N(CCCCCCCCCCCC)CC(=O)N(CCCCCCCCCCCC)CC(=O)N(CC(N)=O)CC(CC)CCCC)CC(CC)CCCC)C(=O)CNC(CO)CO (centres unmarked) [Compound 30] (H-[N(CH(CH2OH)2)Gly][Gly(N-dodecyl)][Gly(N-dodecyl)][N(2-ethylhexyl)Gly][Gly(N-dodecyl)][Gly(N-dodecyl)][N(2-ethylhexyl)Gly]-NH2)
- PDI [1, 6]: 0.097
- Particle Size (nm) [1, 6]: 82.6 nm
- % Encapsulation [2, 6]: 87.7%
- Zeta Potential [3]: −1.41
- pKa (TNS) [4]: 6.084
- hemolysis at 45 min, 150 mM total lipid [5, 7]: 17.3%
- hemolysis at 45 min, 150 mM total lipid [5, 8]: 2.1%

Structure (SMILES): CCCCCCCCCCN(CC(N)=O)C(=O)CN(CC(CC)CCCC)C(=O)CN(CCCCCCCCCC)C(=O)CN(CCCCCCCCCC)C(=O)CN(CC(CC)CCCC)C(=O)CN(CCCCCCCCCC)C(=O)CNC(CO)CO (centres unmarked) [Compound 43] (H-[N(CH(CH2OH)2)Gly][NDecylGly][N(2-ethylhexyl)Gly][NDecylGly][NDecylGly][N(2-ethylhexyl)Gly][NDecylGly]-NH2)
- PDI [1, 6]: Multimodal
- Particle Size (nm) [1, 6]: 2058.2 nm
- Zeta Potential [3]: −6.37
- pKa (TNS) [4]: 4.595
- hemolysis at 45 min, 150 mM total lipid [5, 7]: 1.2%
- hemolysis at 45 min, 150 mM total lipid [5, 8]: 0.2%

Structure (SMILES): CCCCCCCCCCCCN(CC(N)=O)C(=O)CN(CCCCCCCCCCCC)C(=O)CN(CCCCCCCCCCCC)C(=O)CN(CCCCCCCCCCCC)C(=O)CNCCN [Compound C1, reference compound]
- PDI [1, 9]: 0.206
- Particle Size (nm) [1, 9]: 61.3 nm
- % Encapsulation [2, 9]: 86.6%
- hemolysis at 45 min, 150 mM total lipid [5, 10]: -15.1%
- hemolysis at 45 min, 150 mM total lipid [5, 11]: 39.2%

Structure (SMILES): CCCCCCCCCCCCN(CC(N)=O)C(=O)CN(CCCCCCCCCCCC)C(=O)CN(CCCCCCCCCCCC)C(=O)CN(CCCCCCCCCCCC)C(=O)CNCCCN [Compound C5, reference compound]
- PDI [1, 9]: 0.135
- Particle Size (nm) [1, 9]: 57.3 nm
- % Encapsulation [2, 9]: 97.5%
- hemolysis at 45 min, 150 mM total lipid [5, 10]: -15.6%
- hemolysis at 45 min, 150 mM total lipid [5, 11]: 39.8%

Structure (SMILES): CCCCCCCCCCN(CC(N)=O)C(=O)CN(CCCCCCCCCC)C(=O)CN(CCCCCCCCCC)C(=O)CN(CC(CC)CCCC)C(=O)CN(CCCCCCCCCC)C(=O)CN(CCCCCCCCCC)C(=O)CN(CCCCCCCCCC)C(=O)CN(CC(CC)CCCC)C(=O)CNC(CO)CO (centres unmarked) [Compound 8]
- pKa (TNS) [4]: 5.786
- hemolysis at 45 min, 150 mM total lipid [5, 7]: 0.5%
- hemolysis at 45 min, 150 mM total lipid [5, 8]: -0.1%

Structure (SMILES): CCCCCCCCCCCCN(CC(N)=O)C(=O)CN(CCCCCCCCCCCC)C(=O)CN(CCCCCCCCCCCC)C(=O)CN(CCCCCCCCCCCC)C(=O)CNCCO [Compound C3, reference compound]
- PDI [1, 9]: 0.196
- Particle Size (nm) [1, 9]: 65.3 nm
- % Encapsulation [2, 9]: 87.5%
- hemolysis at 45 min, 150 mM total lipid [5, 10]: 24.4%
- hemolysis at 45 min, 150 mM total lipid [5, 11]: 51.1%
